test system: 15 different cancer cell lines; assay: not given; details: read-out: mean EC50 averaged from 15 different cancer cell lines; cited from earlier work

| SMILES | EC50 [nM] |
| --- | --- |
| CO[C@@H](C(=O)N1Cc2[nH]nc(NC(=O)c3ccc(N4CCN(C)CC4)cc3)c2C1)c1ccccc1 [Compound 1, danusertib] | 123 |

test system: T. brucei rhodesiense YTAT1.1 strain; assay: dose-response against T. b. rhodesiense cultures, Cell Titer Blue assay; assay type: cell-based, Trypanosoma brucei rhodesiense; details: ratio MOLT-4 EC50 / T. b. rhodesiense EC50

| SMILES | Selectivity MOLT/Tbr |
| --- | --- |
| CN1CCN(c2ccc(C(=O)Nc3n[nH]c4c3CN(C(=O)Cc3cccc5ccccc35)C4)cc2)CC1 [Compound 8, 4-(4-Methylpiperazin-1-yl)-N-(5-(2-(naphthalen-1-yl)acetyl)-1,4,5,6-tetrahydropyrrolo[3,4-c]pyrazol-3-yl)benzamide] | 23.4 |
| CN1CCN(c2ccc(C(=O)Nc3n[nH]c4c3CN(C(=O)Cc3c(F)ccc(F)c3F)C4)cc2)CC1 [Compound 9, 4-(4-Methylpiperazin-1-yl)-N-(5-(2-(2,3,6-trifluorophenyl)acetyl)-1,4,5,6-tetrahydropyrrolo[3,4-c]pyrazol-3-yl)benzamide] | 6.9 |
| CN1CCN(c2ccc(C(=O)Nc3n[nH]c4c3CN(C(=O)Cc3cccc(Cl)c3)C4)cc2)CC1 [Compound 11, N-(5-(2-(3-Chlorophenyl)acetyl)-1,4,5,6-tetrahydropyrrolo[3,4-c]pyrazol-3-yl)-4-(4-methylpiperazin-1-yl)benzamide] | 6.9 |
| Cc1ccc(C(C)C(=O)N2Cc3[nH]nc(NC(=O)c4ccc(N5CCN(C)CC5)cc4)c3C2)cc1 (centres unmarked) [Compound 13, 4-(4-Methylpiperazin-1-yl)-N-(5-(2-(p-tolyl)propanoyl)-1,4,5,6-tetrahydropyrrolo[3,4-c]pyrazol-3-yl)benzamide] | 6.4 |
| Cc1cc(C)cc(CC(=O)N2Cc3[nH]nc(NC(=O)c4ccc(N5CCN(C)CC5)cc4)c3C2)c1 [Compound 14, N-(5-(2-(3,5-Dimethylphenyl)acetyl)-1,4,5,6-tetrahydropyrrolo[3,4-c]pyrazol-3-yl)-4-(4-methylpiperazin-1-yl)benzamide] | 4.3 |
| Cc1ccc(C)c(CC(=O)N2Cc3[nH]nc(NC(=O)c4ccc(N5CCN(C)CC5)cc4)c3C2)c1 [Compound 15, N-(5-(2-(2,5-Dimethylphenyl)acetyl)-1,4,5,6-tetrahydropyrrolo[3,4-c]pyrazol-3-yl)-4-(4-methylpiperazin-1-yl)benzamide] | 2.2 |
| CN1CCN(c2ccc(C(=O)Nc3n[nH]c4c3CN(C(=O)Cc3cc(F)cc(F)c3F)C4)cc2)CC1 [Compound 16, 4-(4-Methylpiperazin-1-yl)-N-(5-(2-(2,3,5-trifluorophenyl)acetyl)-1,4,5,6-tetrahydropyrrolo[3,4-c]pyrazol-3-yl)benzamide] | 1.2 |
| Cc1[nH]c2ccccc2c1CC(=O)N1Cc2[nH]nc(NC(=O)c3ccc(N4CCN(C)CC4)cc3)c2C1 [Compound 17, N-(5-(2-(2-Methyl-1H-indol-3-yl)acetyl)-1,4,5,6-tetrahydropyrrolo[3,4-c]pyrazol-3-yl)-4-(4-methylpiperazin-1-yl)benzamide] | 1.0 |
| CN1CCN(c2ccc(C(=O)Nc3n[nH]c4c3CN(C(=O)Cc3cc(F)cc(F)c3)C4)cc2)CC1 [Compound 18, N-(5-(2-(3,5-Difluorophenyl)acetyl)-1,4,5,6-tetrahydropyrrolo[3,4-c]pyrazol-3-yl)-4-(4-methylpiperazin-1-yl)benzamide] | 0.7 |

target: T1, TbAUK1 (Trypanosoma brucei brucei, UniProt Q384J7); assay: in vitro kinase assay with immunoprecipitated AU1-tagged TbAUK1; assay type: biochemical; details: tested at 500 nM; AU1-tagged TbAUK1 pull-down, MBP substrate

| SMILES | inhibition of TbAUK1 kinase activity |
| --- | --- |
| CO[C@@H](C(=O)N1Cc2[nH]nc(NC(=O)c3ccc(N4CCN(C)CC4)cc3)c2C1)c1ccccc1 [Compound 1, danusertib] | inhibited TbAUK1 to the same background level as hesperadin |
| CCc1cccc(CC)c1NC(=O)N1Cc2[nH]nc(NC(=O)c3ccc(N4CCN(C)CC4)cc3)c2C1 [Compound 2, PHA-680632] | inhibited TbAUK1 to the same background level as hesperadin |
| CCS(=O)(=O)Nc1ccc2c(c1)/C(=C(/Nc1ccc(CN3CCCCC3)cc1)c1ccccc1)C(=O)N2 [Hesperadin, hesperadin] | completely inhibited TbAUK1 |

target: T1, TbAUK1; assay: not given; details: at 200 nM; cited from earlier work

| SMILES | inhibition of TbAUK1 kinase activity |
| --- | --- |
| CCS(=O)(=O)Nc1ccc2c(c1)/C(=C(/Nc1ccc(CN3CCCCC3)cc1)c1ccccc1)C(=O)N2 [Hesperadin, hesperadin] | to the level of a background kinase |

Source: PMC3516633 (European journal of medicinal chemistry, 2012)
